In ChEMBL document CHEMBL1130621, “Synthesis of a non-nucleoside reverse transcriptase inhibitor in the alkenyldiarylmethane (ADAM) series with optimized potency and therapeutic index” (Bioorg Med Chem Lett, 1998):

What was measured:
CEM-SS [1] = test: Compound was tested for the prevention of cytopathic effect of HIV-1 RF in CEM-SS cells; type: functional, cell-based; details: Homo sapiens
CEM-SS [2] = test: Compound was tested for cytotoxicity in uninfected CEM-SS cells; type: functional; details: Homo sapiens
MT4 [3] = test: Compound was tested for the inhibition of cytopathic effect of HIV-1 6S in MT-4 cells; type: functional, Homo sapiens
MT4 [4] = test: Compound was tested for the inhibition of cytopathic effect of HIV-1 N119 in MT-4 cells; type: functional, Homo sapiens

Row | SMILES | EC50 (CEM-SS [1]) [µM] | CC50 (CEM-SS [2]) [µM] | Activity (MT4 [3]) [µM] | Activity (MT4 [4]) [µM]
1 | COC(=O)CCCC=C(c1cc(Cl)c(OC)c(C(=O)OC)c1)c1cc(Cl)c(OC)c(C(=O)OC)c1 | 0.013 | 31.6 |  | 
2 | CCCCCC=C(c1cc(Br)c(OC)c(C(=O)OC)c1)c1cc(Br)c(OC)c(C(=O)OC)c1 |  |  | 0.56 | 151
